According to article PMC5660261 (Frontiers in Pharmacology, 2017):

Columns and labels:
[1] = molecular target: T1, human CB2R (Homo sapiens, UniProt P34972); assay: HTRF (Tag-lite) saturation binding of red CB2R ligand in living HEK-293T cells expressing SNAP-CB2R
T1 construct: host or cells: HEK-293T, transient transfection, living cells

[2] = molecular target: T1, human CB2R; assay: HTRF (Tag-lite) competition binding of red CB2R ligand in living HEK-293T cells expressing SNAP-CB2R; details: 100 nM red CB2R ligand, low nanomolar CBD concentrations
[3] = molecular target: T1, human CB2R; assay: Forskolin-induced intracellular cAMP determination in HEK-293T cells expressing CB2R; assay type: cell-based
[4] = molecular target: T2, human GPR55 (Homo sapiens, UniProt Q9Y2T6); assay: Forskolin-induced intracellular cAMP determination in HEK-293T cells expressing GPR55; assay type: cell-based
T2 construct: expressed in transfected cells; host or cells: HEK-293T, transient transfection
T2 sequence (Q9Y2T6 whole entry): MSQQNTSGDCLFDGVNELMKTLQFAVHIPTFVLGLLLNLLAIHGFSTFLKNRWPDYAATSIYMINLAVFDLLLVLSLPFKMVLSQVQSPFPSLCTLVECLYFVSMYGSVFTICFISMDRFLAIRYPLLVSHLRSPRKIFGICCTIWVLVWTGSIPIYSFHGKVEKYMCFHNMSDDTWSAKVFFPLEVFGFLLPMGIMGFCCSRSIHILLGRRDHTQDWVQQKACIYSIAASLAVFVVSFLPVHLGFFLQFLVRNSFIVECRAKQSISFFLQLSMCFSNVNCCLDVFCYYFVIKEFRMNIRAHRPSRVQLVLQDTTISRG
Protocol: Two hours before initiating the experiment, growth medium was replaced by serum-free DMEM. Then, HEK-293T cells transiently expressing CB2R or GPR55 were detached and resuspended in growing medium containing 50 μM zardaverine and plated in 384-well microplates (2,500 cells/well), pretreated (15 min) with the corresponding antagonists—or vehicle—and stimulated with agonists (15 min) before adding 0.5 μM forskolin or vehicle. Readings were performed after 15 min of incubation at 25°C. HTRF measures were performed using the Lance Ultra cAMP kit (PerkinElmer, Waltham, MA, United States). Fluorescence at 665 nm was analyzed on a PHERAstar Flagship microplate reader equipped with an HTRF optical module (BMG Lab Technologies, Offenburg, Germany).

T1 sequence (P34972 whole entry): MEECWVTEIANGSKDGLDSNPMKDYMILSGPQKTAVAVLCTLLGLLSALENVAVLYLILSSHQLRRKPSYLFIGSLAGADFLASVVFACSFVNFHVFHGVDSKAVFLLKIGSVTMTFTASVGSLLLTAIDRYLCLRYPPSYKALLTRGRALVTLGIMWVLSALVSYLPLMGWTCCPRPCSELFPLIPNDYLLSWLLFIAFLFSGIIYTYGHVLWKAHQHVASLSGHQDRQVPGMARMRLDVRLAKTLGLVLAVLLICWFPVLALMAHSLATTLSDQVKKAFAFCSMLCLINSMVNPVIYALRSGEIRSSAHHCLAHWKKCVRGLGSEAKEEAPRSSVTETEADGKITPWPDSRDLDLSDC

Molecule: SR144528
- effect on maximum binding (Bmax) of red CB2R ligand [1]: reduced Bmax values

Molecule: C=C(C)[C@@H]1CCC(C)=C[C@H]1c1c(O)cc(CCCCC)cc1O [CBD, cannabidiol]
- reduction of fluorescent agonist binding [2]: circa 25%
- G-protein-coupled signal (cAMP) of compound alone ([3]; concentration range 1–1,000 nM, no agonist, HEK-293T cells expressing human CB2R): did not significantly engage any G-protein-coupled signal
- cAMP response to combined treatment with CBD and JWH133 ([4]; 100 nM JWH133, HEK-293T transiently transfected with GPR55): not significantly different than that achieved by CBD alone
- cAMP signal of compound alone ([4]; HEK-293T cells expressing human GPR55): results were similar to those in cells expressing the CB2R

Molecule: CCCC(C)(C)c1ccc2c(c1)OC(C)(C)[C@@H]1CC=C(C)C[C@@H]21 [JWH133]
- Agonist-induced reduction in cAMP ([3]; 100 nM JWH133, data given in percentage of the 500 nM forskolin-induced cAMP concentration): 31 ± 4
